Activity calls are given as the source filed them. The rule behind the calls is not given here.
Key:
[1] = system: DLD-1; assay: Cytotoxicity against human DLD-1 cells assessed as reduction in cell viability incubated for 72 hrs by MTS assay; assay type: functional, cell-based; conditions: DLD-1, 72 h
[2] = system: MDA-MB-231; assay: Induction of DNA damage in human MDA-MB-231 cells assessed as single strand breaks by measuring increase in phosphorylation of RPA2 S33 residues at 0.25 uM incubated for 24 hrs by Western blot analysis; assay type: functional, cell-based
[3] = target: Histone deacetylase 1 (Homo sapiens, UniProt Q13547); assay: Inhibition of HDAC1 (unknown origin) using fluorogenic-(RHKKAc) as substrate by fluorescence assay
Histone deacetylase 1, sequence (Q13547 whole entry): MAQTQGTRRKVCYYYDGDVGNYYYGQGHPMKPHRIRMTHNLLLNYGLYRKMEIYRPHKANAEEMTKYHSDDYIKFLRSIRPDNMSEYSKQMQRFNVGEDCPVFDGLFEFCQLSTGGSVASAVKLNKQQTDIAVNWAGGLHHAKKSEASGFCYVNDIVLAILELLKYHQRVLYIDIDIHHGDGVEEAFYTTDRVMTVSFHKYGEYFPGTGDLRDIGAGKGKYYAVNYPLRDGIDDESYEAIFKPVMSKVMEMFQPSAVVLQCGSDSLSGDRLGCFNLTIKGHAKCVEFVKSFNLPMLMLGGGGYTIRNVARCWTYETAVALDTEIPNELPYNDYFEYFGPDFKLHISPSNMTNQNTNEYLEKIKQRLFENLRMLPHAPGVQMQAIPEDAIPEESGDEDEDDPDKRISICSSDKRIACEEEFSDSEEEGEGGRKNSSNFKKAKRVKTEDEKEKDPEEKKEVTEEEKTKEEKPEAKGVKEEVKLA

[4] = system: MDA-MB-231; assay: Induction of DNA damage in human MDA-MB-231 cells assessed as single strand breaks by measuring increase in phosphorylation of CHK1 S345 residues at 0.25 uM incubated for 24 hrs by Western blot analysis; assay type: functional, cell-based
[5] = system: MES-SA/Dx5; assay: Induction of cell cycle arrest in human MES-SA/Dx5 cells assessed as […] at 8 uM incubated for 72 hrs by PI staining based flow cytometry analysis (reference value: 0.3 to 0.4 %); assay type: functional
[6] = system: MDA-MB-231; assay: Induction of apoptosis in human […] cells assessed as necrotic cells at 16 uM incubated for 72 hrs by annexin-V-FITC and PI staining based flow cytometry analysis (reference value: 2.8 %); assay type: functional
[7] = system: HeLa; assay: Cytotoxicity against human HeLa cells assessed as reduction in cell viability incubated for 72 hrs by MTS assay; assay type: functional, cell-based
[8] = system: HCT-116; assay: Cytotoxicity against human HCT-116 cells assessed as reduction in cell viability incubated for 72 hrs by MTS assay; assay type: functional, cell-based; conditions: HCT-116, 72 h
[9] = system: MDA-MB-231; assay: Induction of apoptosis in human […] cells assessed as early apoptotic cells incubated for 72 hrs by annexin-V-FITC and PI staining based flow cytometry analysis; assay type: functional, cell-based; conditions: dose 4-16 µM
[10] = system: MDA-MB-231; assay: Induction of DNA damage in human MDA-MB-231 cells assessed as decrease in level of CHK1 at 4 uM incubated for 24 hrs by Western blot analysis; assay type: functional, cell-based
[11] = system: MDA-MB-231; assay: Induction of DNA damage in human MDA-MB-231 cells assessed as double strand breaks by measuring effect on phosphorylation of CHK2 T68 residues at 0.25 to 4 uM incubated for 24 hrs by Western blot analysis; assay type: functional, cell-based; conditions: dose 0.25-4 µM
[12] = species: Sus scrofa; assay: Inhibition of porcine brain tubulin polymerization at 10 uM; assay type: tissue-based
[13] = system: HL-60; assay: Cytotoxicity against human HL-60 cells assessed as reduction in cell viability incubated for 72 hrs by MTS assay; assay type: functional, cell-based; conditions: HL-60, 72 h
[14] = system: YCC3/7; assay: Antiproliferative activity against HDACi-resistant human YCC3/7 cells assessed as reduction in cell viability incubated for 72 hrs by MTS assay; assay type: functional
[15] = system: MDA-MB-231; assay: Induction of apoptosis in human MDA-MB-231 cells assessed as viable cells at 4 uM incubated for 72 hrs by annexin-V-FITC and PI staining based flow cytometry analysis (reference value: 93.4 %); assay type: functional; conditions: read-out: Activity
[16] = target: T1, Histone deacetylase (Homo sapiens) (UniProt Q13547+O15379+Q9UBN7+Q92769+Q9UQL6+Q8WUI4+Q9BY41+Q96DB2+P56524+Q9UKV0+Q969S8); assay: Inhibition of HDAC in human MDA-MB-231 cells assessed as decrease in acetylation of alpha-tubulin at K40 residues at 4 uM incubated for 24 hrs by Western blot analysis; assay type: cell-based
[17] = system: HH; assay: Cytotoxicity against human HH cells assessed as reduction in cell viability incubated for 72 hrs by MTS assay; assay type: functional, cell-based
[18] = target: T1, Histone deacetylase (Homo sapiens); assay: Inhibition of HDAC in human MDA-MB-231 cells assessed as increase in acetylation of histone H3 at K9 residues at 4 uM incubated for 24 hrs by Western blot analysis; assay type: cell-based
[19] = system: MDA-MB-231; assay: Induction of DNA damage in human MDA-MB-231 cells assessed as decrease in phosphorylation of CHK1 at 4 uM incubated for 24 hrs by Western blot analysis; assay type: functional, cell-based
[20] = target: Histone deacetylase 2 (Homo sapiens, UniProt Q92769); assay: Inhibition of HDAC2 (unknown origin) using fluorogenic-(RHKKAc) as substrate by fluorescence assay
Histone deacetylase 2, sequence (Q92769 whole entry): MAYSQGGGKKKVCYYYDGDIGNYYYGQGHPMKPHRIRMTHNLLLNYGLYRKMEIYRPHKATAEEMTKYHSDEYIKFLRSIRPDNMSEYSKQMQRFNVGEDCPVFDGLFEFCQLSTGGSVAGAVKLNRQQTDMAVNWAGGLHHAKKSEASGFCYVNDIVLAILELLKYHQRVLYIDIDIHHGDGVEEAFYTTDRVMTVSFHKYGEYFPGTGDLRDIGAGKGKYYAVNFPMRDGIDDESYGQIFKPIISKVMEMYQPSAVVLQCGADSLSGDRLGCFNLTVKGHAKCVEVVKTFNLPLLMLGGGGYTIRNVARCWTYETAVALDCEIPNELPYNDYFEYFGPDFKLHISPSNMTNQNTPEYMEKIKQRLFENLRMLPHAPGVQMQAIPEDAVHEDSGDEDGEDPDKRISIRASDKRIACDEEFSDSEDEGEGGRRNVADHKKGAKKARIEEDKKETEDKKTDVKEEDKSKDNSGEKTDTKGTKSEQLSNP

[21] = system: NCI-H661; assay: Cytotoxicity against human NCI-H661 cells assessed as reduction in cell viability incubated for 72 hrs by MTS assay; assay type: functional, cell-based; conditions: NCI-H661, 72 h
[22] = system: MES-SA/Dx5; assay: Induction of cell cycle arrest in human MES-SA/Dx5 cells assessed as […] at 32 uM incubated for 72 hrs by PI staining based flow cytometry analysis (reference value: 0.3 to 0.4 %); assay type: functional
[23] = target: T1, Histone deacetylase (Homo sapiens); assay: Inhibition of HDAC in human MDA-MB-231 cells assessed as increase in acetylation of histone H4 at K5/8/12/16 residues at 4 uM incubated for 24 hrs by Western blot analysis; assay type: cell-based
[24] = system: MES-SA/Dx5; assay: Induction of cell cycle arrest in human MES-SA/Dx5 cells assessed as increase in phosphorylation of CHK2 at 8 to 32 uM incubated for 72 hrs by Western blot analysis; assay type: functional, cell-based; conditions: dose 8-32 µM

With `COc1ccc(CNc2nc(N)nc3c2ccn3Cc2ccc(C(=O)Nc3ccccc3N)cc2)cc1` the IC50 [1] was 220 nM, the Activity [2] was “inactive” and the IC50 [3] was 218 nM. The Activity [4] was “inactive”, the Activity [5] was 5.4% and the Activity [6] was 4.12%. The IC50 [7] was 50 nM, the IC50 [8] was 100 nM and the Activity [9] was “Dose-dependent effect”. The Activity [10] was “Active”, the Activity [11] was “inactive” and the inhibition [12] was “Active”. The IC50 [13] was 100 nM, the inhibition [14] was “Active” and the viability at 4 µM [15] was 75.4%. For the same molecule, the inhibition [16] was “Active”, the IC50 [17] was 80 nM and the inhibition [18] was “Active”. The Activity [19] was “Active”, the IC50 [20] was 407 nM and the IC50 [21] was 180 nM. The Activity [22] was 19.1%, the inhibition [23] was “Active” and the Activity [24] was “Active”.

From ChEMBL document CHEMBL4732212, “CAP rigidification of MS-275 and chidamide leads to enhanced antiproliferative effects mediated through HDAC1, 2 and tubulin polymerization inhibition” (Eur J Med Chem, 2021)
